Results: the NIST ThermoML archive (doi:10.1016/j.jct.2016.07.048)
± gives the expanded uncertainty stated by the source.

How the values were obtained:
[1] = Crystal; DTA
[2] = Molar enthalpy of transition or fusion; settings: Crystal; DSC

With CCCCCCOC(=O)NC(=N)c1ccc(NCc2nc3cc(C(=O)N(CCC(=O)OCC)c4ccccn4)ccc3n2C)cc1.CS(=O)(=O)O [Dabigatran etexilate mesylate] the Normal melting temperature [1] was 190.09 ± 1.1 °C and the “Molar enthalpy of transition or fusion” value [2] was 15.4 ± 0.693 kcal/mol.
